According to patent US6297230A, “Cyanoaziridines for treating cancer” (priority 2000, dated 2001):
≈ marks a conversion by molar mass, not a printed value. Read-outs that look alike come from different tables or passages of the source.

What was measured:
[1] = tested on: L-1210 leukemia cells (sensitive); assay: MTT growth inhibition, sensitive L-1210 leukemia cells; assay type: cell-based, mouse; settings: Sensitive L-1210, drug continuously present 8 days
Procedure: Tumors are disaggregated into single cell suspensions using mechanical, hypoosmotic, and/or enzymatic (trypsin) methods. The cells are plated at a concentration of 3-5×10^4 per […] well into plastic 96-well plates. Growth medium containing 5-10% (vol/vol) heat-inactivated fetal bovine serum and penicillin/streptomycin (both […]) are added prior to incubation at 37° C. for 6 days. Afterwards the medium containing the drug is removed, the cells are centrifuged in fresh medium or phosphate-buffered saline (pH 7.4). A tetrazolium dye, […]-2,5-diphenyl tetrazolium (MTT), is then added. (Mossman, T., J Immunol 65:55-63, 1983.) This dye forms a colored formazan product upon activation by mitochondrial reductases in viable cells. Typically, the formazan product is solubilized in acid-propanol or DMSO. The intensity of the color is proportional to viable cell numbers and this is quantitated by spectrophotometric absorbance at 570 nm on a micro ELISA plate reader. The results are calibrated in % control absorbance from untreated tumor cells. (Alley, et al., Cancer Res 48:589-601, 1988.) […]
Murine L-1210 Leukemia Cells were first described by Law, et al. from a female DBA/2 mouse exposed to topical methylcholanthrene. (Law, et al., J Natl Cancer Inst 10:179-192, 1949.) The cells represent a lymphocytic lineage and are highly tumorigenic in syngeneic DBA/2 mice, producing lethality typically 10-14 days after inoculation. This cell line has been used extensively to characterize the antitumor activity of chemotherapeutic agents. (Goldin, et al., Cancer Res (Cancer Chemotherapy Screening Data IX) 21:27-92, 1961.) The L-1210 cells have a model 40-41 chromosomes and a very high plating efficiency in suspension cultures in vitro.
(§1) *Drug continuously present for 8 days; IC50 measured by MTT dye

[2] = tested on: L-1210 MDR leukemia cells; assay: MTT growth inhibition, multidrug-resistant L-1210 leukemia cells; assay type: cell-based, mouse; settings: for Fold Resistance of IC50 's (MDR/S): L-1210 MDR vs sensitive, 11520 min; for IC50: MDR L-1210, drug continuously present 8 days
Procedure: (§2) Tumors are disaggregated into single cell suspensions using mechanical, hypoosmotic, and/or enzymatic (trypsin) methods. The cells are plated at a concentration of 3-5×10^4 per […] well into plastic 96-well plates. Growth medium containing 5-10% (vol/vol) heat-inactivated fetal bovine serum and penicillin/streptomycin (both […]) are added prior to incubation at 37° C. for 6 days. Afterwards the medium containing the drug is removed, the cells are centrifuged in fresh medium or phosphate-buffered saline (pH 7.4). A tetrazolium dye, […]-2,5-diphenyl tetrazolium (MTT), is then added. (Mossman, T., J Immunol 65:55-63, 1983.) This dye forms a colored formazan product upon activation by mitochondrial reductases in viable cells. Typically, the formazan product is solubilized in acid-propanol or DMSO. The intensity of the color is proportional to viable cell numbers and this is quantitated by spectrophotometric absorbance at 570 nm on a micro ELISA plate reader. The results are calibrated in % control absorbance from untreated tumor cells. (Alley, et al., Cancer Res 48:589-601, 1988.)
In addition, the imexon analogs have also been tested in a multidrug-resistant (MDR) mouse L-1210 leukemia cell line.
L-1210 MDR Cells represent a multidrug-resistant cell line developed for resistance to the alkylating agent mitomycin C. (Dorr, et al., Biochem Pharmacol 36(19):3115-3120, 1987.) This cell line has the same general growth characteristics of the parental line, but is cross-resistant to numerous natural-product based anticancer agents. This includes anthracyclines such as doxorubicin (Adriamycin®) and vinca alkaloids such as vincristine or vinblastine.
as §1

[3] = tested on: A-375 malignant melanoma cells; assay: In vitro antitumor activity, A-375 melanoma; assay type: cell-based, human
Source text: 1) in vitro tumor cell viability assays using MTT and SRB dye reaction endpoints.
Sulforhodamine B (SRB) Assay for Adherent Tumor Cells
Sulforhodamine B (SRB) is a protein binding aminoxanthene dye with two sulfonic acid groups. (Lillie, R. D., H. J. Conn's Biological Stains, 9th Ed., Baltimore; Williams & Wilkins, 1977.) It quantitates whole cell protein content by the intensity of dye staining and relates this to the number of viable cells. […] The SRB assay is used for cells which normally adhere to surfaces (in this case plastic culture flasks or petri dishes) as part of their requirement for growth and division in vitro. The SRB assay is currently used by the National Cancer Institute in the anticancer drug screening program. (Skehan, et al., J Natl Cancer Inst 82:1107-1112, 1990; Rubinstein, et al., J Natl Cancer Inst 82:1113-1118, 1990.) Methodologic comparisons have shown that SRB results are linear for the number of tumor cells over a 100-fold range, and for protein content determined by a modified Lowry method or Standard Bradford (Bradford, M., Anal Biochem 72:248-254, 1976) methods. […] (Lillie, R. D., H. J. Conn's Biological Stains, 9th Ed., Baltimore; Williams & Wilkins, 1977.)
Cell cultures of 10^3 -10^7 cells growing in 96-well plastic microtiter plates are fixed with 50% trichloroacetic acid (TCA) for 30 minutes at 4° C. The cells are then stained with 0.4% (w/v) sulforhodamine B (SRB) dissolved in 1% acetic acid. Unbound dye is removed by 4 washes with 1% acetic acid, and protein-bound dye is extracted with 10 mM unbuffered Tris® base [tris(hydroxymethyl)aminomethane]. The optical density (OD) of this extracted solution is measured at […] in a microtiter plate ultraviolet absorbance detector. Cell viability is expressed as percent of control by dividing the optical densities and multiplying the result by 100.
Microculture Tetrazolium (MTT) Assay for Tumor Cells
as §2
Table 3 gives the potencies of the new aziridine-1-carboxamides in a panel of human and murine tumor cells in culture. The tumor cell lines in this table are selected to represent a range of histological and growth phenotypes. Their characteristics are described below.
4.0 The Human A-375 Malignant Melanoma Cell Line was also developed by Girard, et al. (Girard, et al., J Natl Cancer Inst 51(5):1417-1423, 1973) from a human with advanced melanoma. The modal chromosome number is 67 and it has a low plating (colony forming) efficiency of 0.7% when grown on agar. These cells also form rapidly growing tumors when injected subcutaneously into immunodeficient athymic (nu/nu) mice. (Girard, et al., J Natl Cancer Inst 51(5):1417-1423, 1973.) These cells are also used in the NCI drug screening panel. (Skehan, et al., J Natl Cancer Inst 82:1107-1112, 1990.)

[4] = Mus musculus, L1210, 192 h, read-out: IC50

Structure (SMILES) | IC50 [1, 4] [µg/mL] | Fold Resistance of IC50 's (MDR/S) [2] | IC50 [2, 4] [µg/mL] | IC50 ([3]; Homo sapiens, read-out: IC50) [µg/mL] | IC50 [1] [µg/mL] | IC50 [2] [µg/mL] | IC50 [3] [µg/mL]
CCCCNC(=O)N1CC1C#N (centres unmarked) [AMP 414, 2-Cyanoaziridine-1-(N-butyl)carboxamide] | 2 (≈ 12 µM) | 1.0 | 2 (≈ 12 µM) | 2.5 (≈ 15 µM) | – | – | –
N#CC1CN1C(=O)Nc1cccnc1 (centres unmarked) [AMP 421, 2-Cyanoaziridine-1-[N-(3-pyridyl)]carboxamide] | 2.3 (≈ 12.2 µM) | 0.9 | 2.1 (≈ 11.2 µM) | 2.3 (≈ 12.2 µM) | – | – | –
CCOC(=O)c1ccc(NC(=O)N2CC2C#N)cc1 (centres unmarked) [AMP 419, 2-Cyanoaziridine-1-[N-(4-ethoxycarbonylphenyl)]carboxamide] | 2.5 (≈ 9.64 µM) | 1.2 | 3 (≈ 11.6 µM) | 2 (≈ 7.71 µM) | – | – | –
CC(=O)Oc1ccccc1NC(=O)N1CC1C#N (centres unmarked) [AMP 424, 2-Cyanoaziridine-1-[N-(2-acetoxyphenyl)]carboxamide] | – | 1.0 | – | – | > 10 | > 10 | > 10
CCOC(=O)CNC(=O)N1CC1C#N (centres unmarked) [AMP 420, 2-Cyanoaziridine-1-[N-(ethoxycarbonyl)methyl]carboxamide] | 2.5 (≈ 12.7 µM) | 1.0 | 2.5 (≈ 12.7 µM) | 10 (≈ 50.7 µM) | – | – | –
CCNC(=O)N1CC1C#N (centres unmarked) [AMP 406, 2-Cyanoaziridine-1-(N-ethyl)carboxamide] | 2 (≈ 14.4 µM) | 1.0 | 2 (≈ 14.4 µM) | 5 (≈ 35.9 µM) | – | – | –
N#CC1CN1C(=O)Nc1cccc2ccccc12 (centres unmarked) [AMP 423, 2-Cyanoaziridine-1-[N-(1-naphthyl)]carboxamide] | 1.7 (≈ 7.17 µM) | 0.4 | 0.64 (≈ 2.7 µM) | 1 (≈ 4.21 µM) | – | – | –
CC(=O)c1cccc(NC(=O)N2CC2C#N)c1 (centres unmarked) [AMP 425, 2-Cyanoaziridine-1-[N-(3-acetylphenyl)]carboxamide] | 2.2 (≈ 9.6 µM) | 0.8 | 1.8 (≈ 7.85 µM) | 1.8 (≈ 7.85 µM) | – | – | –
N#CC1CN1C(=O)NC1CCCCC1 (centres unmarked) [AMP 413, 2-Cyanoaziridine-1-(N-cyclohexyl)carboxamide] | 1.4 (≈ 7.24 µM) | 2.2 | 3.1 (≈ 16 µM) | 6.7 (≈ 34.7 µM) | – | – | –
N#CC1CN1C(=O)Nc1ccc([N+](=O)[O-])cc1 (centres unmarked) [AMP 417, 2-Cyanoaziridine-1-[N-(4-nitrophenyl)]carboxamide] | 0.6 (≈ 2.58 µM) | 1.0 | 0.6 (≈ 2.58 µM) | 0.9 (≈ 3.88 µM) | – | – | –
CC(C)(C)NC(=O)N1CC1C#N (centres unmarked) [AMP 410, 2-Cyanoaziridine-1-(N-t-butyl)carboxamide] | 22 (≈ 132 µM) | 1.4 | 30.7 (≈ 184 µM) | 69.9 (≈ 418 µM) | – | – | –
N#CC1CN1C(=O)Nc1ccc(Cl)cc1Cl (centres unmarked) [AMP 407, 2-Cyanoaziridine-1-[N-(2,4-dichlorophenyl)]carboxamide] | 52.3 (≈ 204 µM) | 0.16 | 8.4 (≈ 32.8 µM) | 2 (≈ 7.81 µM) | – | – | –
N#CC1CN1C(=O)NCc1ccccc1 (centres unmarked) [AMP 412, 2-Cyanoaziridine-1-(N-benzyl)carboxamide] | 0.8 (≈ 3.98 µM) | 2.6 | 2.1 (≈ 10.4 µM) | 2.2 (≈ 10.9 µM) | – | – | –
CNC(=O)N1CC1C#N (centres unmarked) [AMP 403, 2-Cyanoaziridine-1-(N-methyl)carboxamide] | 1.1 (≈ 8.79 µM) | 2.5 | 2.7 (≈ 21.6 µM) | 2.1 (≈ 16.8 µM) | – | – | –
N#CC1CN1C(=O)Nc1ccc(C(F)(F)F)cc1 (centres unmarked) [AMP 416, 2-Cyanoaziridine-1-[N-(4-trifluorophenyl)]carboxamide] | 2 (≈ 7.84 µM) | 0.9 | 1.8 (≈ 7.05 µM) | 3 (≈ 11.8 µM) | – | – | –
N#CC1CN1C(=O)Nc1ccc(S(N)(=O)=O)cc1 (centres unmarked) [AMP 422, 2-Cyanoaziridine-1-[N-(4-sulfamylphenyl)]carboxamide] | > 10 | – | > 10 | 50 (≈ 188 µM) | – | – | –
N#CC1CN1C(=O)Nc1ccccc1 (centres unmarked) [AMP 404, 2-Cyanoaziridine-1-(N-phenyl)carboxamide] | 0.2 (≈ 1.07 µM) | 10.5 | 2.1 (≈ 11.2 µM) | 2.1 (≈ 11.2 µM) | – | – | –
N#CC1CN1C(=O)Nc1ccc(F)cc1 (centres unmarked) [AMP 415, 2-Cyanoaziridine-1-[N-(4-fluorophenyl)]carboxamide] | 1.5 (≈ 7.31 µM) | 0.8 | 1.2 (≈ 5.85 µM) | 0.7 (≈ 3.41 µM) | – | – | –
